Experimental data reported in patent publication US20260306633A1, “A COMBINATION THERAPY FOR CANCER TREATMENT” (Purdue Research Foundation, priority 2023, published 2026).
Where “and” joins values, the source holds several entries; their conditions need not be identical. Equal values may be shown once.

Assays:
TNBC BT-549 cells = assay: Cell survival / cell inhibition (MTT cell cytotoxicity assay) after 24 h treatment with photosensitizer and/or chemotherapeutic agent, dark or light-irradiated; assay type: cell-based, human
Experimental: Human mammary epithelial carcinoma cell lines purchased from the American Type Culture Collection BT-549 (ATCC HTB-122) were cultured according to ATCC protocol. BT-549 cells were grown in RPMI 1640 containing 0.023 IU/mL insulin and supplemented with 10% fetal bovine serum (FBS). Cells were grown to 80-90% confluence in 75-cm^2 culture flasks (Corning) for 4-5 days in a humidified incubator (Fisher Scientific Isotemp) with 5% CO2 at 37° C. During the incubation period, growth media was changed once with fresh pre-warmed media (pH 7.2). To harvest the cells, old growth media was aspirated out, and 3 mL 0.25% trypsin solution (Thermo Sci Hyclone) were added. The cells were incubated for 5 minutes, and the cell pellet after centrifugation was resuspended in 3 mL media, broken up gently, then 1 mL of suspended cells was transferred into a new T75 cell culture flask containing pre-warmed media (20 mL) for further culturing.
(§1) Cells were grown to confluence in a 96-well plate (9×10^3 cells/well) and co-treated for 24 hours with synthesized photosensitizers (PSs) and chemotherapeutic agents of varying concentrations ranging from 5 nM to 50 μM) in growth media from a stock solution of 10 mM in DMSO (dimethyl sulfoxide, Fisher). After 24-hour treatment, old growth media containing the PSs or compounds were aspirated out and replaced with fresh media. Plates were then positioned below a non-coherent LumaCare LC-122 650 nm light source for 1 minute at an energy fluence rate of 0.96 J/cm^2 and a power of 16 mW/cm^2 (measured using a Newport optical power meter Model 840). Unirradiated cells served as control samples. The following day, cells were washed with pre-warmed PBS, and 11MTT (3-[4,5-dimethyl-thiazol-2-yl]-2.5-diphenyltetrazolium bromide, Sigma, 0.3 mg/mL) in PBS was added to each well. Samples were allowed to incubate for additional 2 hours, after which dark blue crystals formed. DMSO was added to each well and plates were shaken at room temperature for 1 hour to dissolve the purplish-blue formazan crystals. Absorbance values at 570 nm were measured on a microplate reader (BioRad 550). Cell survival was calculated based on the absorbance of the untreated cells alone (as control) and were directly proportional to the number of viable cells in culture. Results were reported as the mean±SD of triplicate measurements.
The unmetallated PS and the indium complexes were used.
Light dose corresponds to an energy fluence rate of 0.96 J/cm^2 used.
Power of 16 mW/cm^2 used.
Cell inhibition in TNBC cells is based on the cell survival (MTT) assay of the binary therapy, blending the effect of PDT and chemotherapeutic agents. […] MePheo serves as a control compound. TNBC cells were then exposed to light after binary treatment for 24 hours.

TNBC cells [1] = assay: Combination index (CI) of binary therapy, Chou-Talalay method, CompuSyn software; assay type: cell-based, human
Experimental: (§2) The calculated CI values are based on 50 nM concentration for the PSs, 50 nM paclitaxel, 500 nM doxorubicin, 25 μM cisplatin, 25 μM fluorouracil, and 500 nM methotrexate.
as §1
The combination index (CI) for the binary treatment of TNBC cells with a PS and a chemotherapeutic drug was calculated based on the Chou-Talalay method using CompuSyn software. […] The unified dynamics algorithm uses a minimum of dose-data points to fit the general MAL theory.
as §2

TNBC cells [2] = assay: as above; assay type: cell-based, human; details: PS 50 nM + methotrexate 500 μM (footnote 500 nM)
human TNBC BT-549 cells = assay: Fluorescence microscopy (Hoechst 33258) of cell morphology / cell death pathway; assay type: cell-based
Experimental: Grayscale images of cells stained with Hoechst 33258. Morphology of (A) untreated unirradiated cells, sham control; (B) illuminated cells; (C-E) cells treated with: PSs (InCLA, CBTN, and CPA) and paclitaxel in the dark; (F-H) PSs, followed by 1 minute light exposure; (I) paclitaxel unirradiated; (J-L) PSs and paclitaxel in the dark; (M-O) PSs co-treated with paclitaxel, then light-exposed; (P-Q) PSs co-treated with doxorubicin, then irradiated; (R) PSs and cisplatin, dark; (S-T) PSs and cisplatin, irradiated; (U) fluorouracil, dark; (V) InCLA with fluorouracil in the dark; (W) light-exposed and, (X-Y) PSs with methotrexate with light. Inserts indicate enlarged view. […] Light dose in 1 minute=0.96 J cm^−2; in 30 seconds=0.48 J cm^−2. Concentrations: PSs=50 nM; paclitaxel=50 nM; doxorubicin=500 nM; cisplatin=25 μM; fluororuracil=25 μM; and, methotrexate=500 nM.
Cells (1 mL aliquots) obtained from a diluted cell suspension were seeded into each well (1.7 cm^2, 8×10^3 cells/well) of a 4-well culture slide (BD Biosciences) and grown to confluence in 5% CO2 at 37° C. for 3-4 days for attachment to the substratum. After aspirating the old growth media, 1 mL of the photosensitizer and chemotherapeutic agents (with appropriate concentrations) in fresh pre-warmed media at 37° C. was added to each well. After compound treatment for 24 hours, cells were washed twice with 1 mL fresh growth media, and then irradiated with light using LumaCare LC-122 as described above. Cells were stained in the dark with Hoechst 33258 (Molecular Probes) in pre-warmed media for 10 minutes at 37° C., washed twice with filtered PBS, then fixed with filtered paraformaldehyde for 15 minutes in the incubator. After thorough liquid aspiration, the wells were removed and allowed to air dry in the dark for 1 hour. Slides were protected with coverslips, whose edges were sealed using clear fast-drying nail polish and allowed to dry at room temperature in the dark for 30 minutes. Images were recorded using fluorescence microscopy (DAPI for Hoechst 350-390 nm excitation and 460-490 nm emission filters) using an upright fluorescence microscope with Retiga imaging 2000R (Nikon Optiphot-2, 20× and 40×) and an image processing Nikon NIS-Elements V4.0 Qimaging software.
To determine the preferred cell death pathway for the binary chemophotodynamic therapy, tracking the hallmarks of apoptosis or necrosis was accomplished using a nuclear stain to monitor chromatin condensation and cellular contraction. TNBC cells are spindle-shaped and nearly round with intact cytoplasm, diffused chromatin, distinct cellular membrane, and large oval nuclei staining dark blue with the nuclear stain (FIG. 18A-B).

For C=Cc1c(C)c2cc3nc(c(CC(=O)OC)c4[nH]c(cc5nc(cc1[nH]2)C(C)=C5CC)c(C)c4C(=O)NCCCCCCNC(=O)CCNC(=O)[C@H](O)C(C)(C)CO)[C@@H](CCC(=O)OC)[C@@H]3C [CPA, chlorin pantothenic acid conjugate], the “cell viability, co-treatment with methotrexate upon light” value (TNBC BT-549 cells; PS 50 nM + methotrexate 500 nM, light, 1440 min) was 66%, the “cell survival, PS alone” value (TNBC BT-549 cells; PS 50 nM, light, 1440 min) was 99% and the “cell inhibition (%), combination with cisplatin” value (TNBC BT-549 cells; PS 100 nM + cisplatin 25 μM, 24 h, light 0.96 J cm−2) was 87%. The “effect of added cisplatin compared to cisplatin-treated cell viability” value (TNBC BT-549 cells; PS 100 nM + cisplatin 25 μM, light) was “reduced cell survival”, the “cell survival, co-treatment with cisplatin upon light” value (TNBC BT-549 cells; PS 100 nM + cisplatin 25 μM, light, 1440 min) was 13% and the “cell survival, co-treatment with doxorubicin in the dark” value (TNBC BT-549 cells; PS 100 nM + doxorubicin 500 nM, 24 h, dark) was 75%. The “cell inhibition (%), combination with doxorubicin” value (TNBC BT-549 cells; PS 100 nM + doxorubicin 500 nM, 24 h, light 0.96 J cm−2) was 73%, the “cell survival, co-treatment with doxorubicin upon light” value (TNBC BT-549 cells; PS 100 nM + doxorubicin 500 nM, light, 1440 min, 0.1 µM) was 37% and 27% and the best combination partner (TNBC BT-549 cells; PS 100 nM + drug, light) was “cisplatin is the best, next doxorubicin, then paclitaxel”. For the same molecule, the “cell inhibition (%), combination with fluorouracil” value (TNBC BT-549 cells; PS 100 nM + fluorouracil 25 μM, 24 h, light 0.96 J cm−2) was 43%, the “effect of added fluorouracil compared to fluorouracil-treated cell viability” value (TNBC BT-549 cells; PS 100 nM + fluorouracil 25 μM, light) was “reduced cell survival” and the “cell survival, co-treatment with fluorouracil upon light” value (TNBC BT-549 cells; PS 100 nM + fluorouracil 25 μM, light, 1440 min) was 57%. The “cell inhibition (%), combination with methotrexate” value (TNBC BT-549 cells; PS 100 nM + methotrexate 500 nM, 24 h, light 0.96 J cm−2) was 33%, the “cell inhibition (%), combination with paclitaxel” value (TNBC BT-549 cells; PS 100 nM + paclitaxel 50 nM, 24 h, light 0.96 J cm−2) was 63% and the “cell survival, co-treatment with paclitaxel upon light” value (TNBC BT-549 cells; PS 100 nM + paclitaxel 50 nM, light, 1440 min) was 37%. For the same molecule, the “chemophotodynamic potency against TNBC cells, summary” value (TNBC BT-549 cells; PS 100 nM alone or in combination, light) was “better activity against TNBC cells than the starting compound MePheo”, the “cell survival, PS alone” value (TNBC BT-549 cells; PS 100 nM, light 0.96 J/cm^2, 1440 min, 0.1 µM) was 75.3% and 75% and the “cytotoxicity in the absence of light, PS alone” value (TNBC BT-549 cells; PS 500 nM, dark) was “No cytotoxicity”. For the same molecule, the “combination therapy vs monotherapy (cisplatin)” value (TNBC BT-549 cells; PS + cisplatin, light) was “better photodynamic effect when co-treated with cisplatin than PS-treatment alone”, the “combination therapy vs monotherapy (doxorubicin)” value (TNBC BT-549 cells; PS + doxorubicin, light) was “better photodynamic effect when co-treated with doxorubicin than PS-treatment alone” and the “combination therapy vs monotherapy (fluorouracil)” value (TNBC BT-549 cells; PS + fluorouracil, light) was “better photodynamic effect when co-treated with fluorouracil than PS-treatment alone”. For the same molecule, the “combination therapy vs monotherapy (methotrexate)” value (TNBC BT-549 cells; PS + methotrexate, light) was “best compared to monotherapy alone and with the other PSs used”, the “cell viability reduction (difference) vs PS alone” value (TNBC BT-549 cells; PS at lower concentration (CPA: 50 nM) + methotrexate 500 nM, light) was 33% and the “combination index (CI) with cisplatin” value (TNBC cells [1]; PS 50 nM + cisplatin 25 μM) was 1.30. The “synergism vs additive vs antagonism effect with cisplatin” value (TNBC cells [1]; PS 50 nM + cisplatin 25 μM) was “(MA) (MA (1.20-1.45), moderate antagonism)”, the “combination index (CI) with doxorubicin” value (TNBC cells [1]; PS 50 nM + doxorubicin 500 nM) was 1.52 and the “synergism vs additive vs antagonism effect with doxorubicin” value (TNBC cells [1]; PS 50 nM + doxorubicin 500 nM) was “(A) (A (1.45-3.3), antagonism)”. For the same molecule, the “ranking of combination partners based on CI, decreasing order” value (TNBC cells [1]; PS 50 nM + drug) was “paclitaxel>fluorouracil>methotrexate”, the “combination index (CI) with fluorouracil” value (TNBC cells [1]; PS 50 nM + fluorouracil 25 μM) was 0.45 and the “synergism vs additive vs antagonism effect with fluorouracil” value (TNBC cells [1]; PS 50 nM + fluorouracil 25 μM) was “(S) (S (0.3-0.7), synergism)”. The “combination index (CI) with paclitaxel” value (TNBC cells [1]; PS 50 nM + paclitaxel 50 nM) was 0.41, the “synergism vs additive vs antagonism effect with paclitaxel” value (TNBC cells [1]; PS 50 nM + paclitaxel 50 nM) was “(S) (S (0.3-0.7), synergism)” and the “combination index (CI) with methotrexate” value (TNBC cells [2]) was 0.50. For the same molecule, the “synergism vs additive vs antagonism effect with methotrexate” value (TNBC cells [2]) was “(S) (S (0.3-0.7), synergism)”, the “cell morphology, PS co-treated with paclitaxel” value (human TNBC BT-549 cells; PS 50 nM + paclitaxel 50 nM, light (FIG. 18M-O)) was “shrunk cells and chromatin fragmentation are evident” and the “cell morphology, PS-treated then light” value (human TNBC BT-549 cells; PS 50 nM, 24 h, light (FIG. 18F-H)) was “reduced cellular volume and nuclear density”. For the same molecule, the “preferred mode of cell death” value (human TNBC BT-549 cells; PS co-treated with paclitaxel or cisplatin) was “apoptosis”.
